Laboratory results as given in patent EP4541376A1, “ANTIBODY-DRUG CONJUGATES” (priority 2023, dated 2025).
Numbered stars: 1 amine (or outer) side, 2 acyl side, 3 side chain; on linkers, the order of the positions; unused ones are H or OH. Square brackets hold non-standard residues; d marks the D form. Peptide text beside a SMILES is read from it. * marks the point of attachment. Exatecan = CC[C@@]1(O)C(=O)OCc2c1cc1n(c2=O)Cc2c-1nc1cc(F)c(C)c3c1c2[C@@H](N*)CC3; Propanoyl(3-maleimido) = O=C1C=CC(=O)N1CCC(=O)*; PABC = O=C(OCc1ccc(N[*:1])cc1)[*:2]

What was measured:
[1] = Aggregation study during conjugation to test antibody (% monomer by SEC); format: physicochemical
Protocol: Aggregation is a process in which molecules self-associate with each other. In the context of the present invention, aggregation levels are assessed during the conjugation of a linker construct to an antibody. During conjugation, aggregation is quantified in terms of percentage monomer content. High percentage monomer values typically equate to a lower degree of aggregation. Percentage monomer values of 93% or 95% or higher typically mean negligible levels of aggregation or none, whereas values below this threshold typically translate to higher levels of aggregation.
2 mg of test monoclonal antibody at 8.87 mg/ml was pH adjusted with 5% 0.5 M Tris, 0.025 M EDTA, pH 8.5 and reduced with 2.3 mol. eq. TCEP and then conjugated with 6mol. eq. drug linker. […] Percentage monomer values of 95% or greater are assessed as low aggregation.
Aggregation levels were assessed during the conjugation to the test antibody.
During conjugation, we are ideally targeting a monomer content or percentage monomer of 95% or above. Low percentage monomer values usually translate to a higher degree of aggregation. One could therefore agree that percentage monomer values of 95% or higher mean very low levels of aggregation or none, whereas values below this threshold often translate to higher levels of aggregation.

[2] = Reverse-Phase HPLC retention time correlation study (hydrophobicity); format: physicochemical; conditions: RP-HPLC; high Rt associated to hydrophobic constructs, low Rt to hydrophilic ones
Protocol: • Column: Phenomenex Gemini NX 5m, C18, 110 Å, 150 × 4.6 mm • Instrument: Shimadzu LC-2030 • Mobile phase: A) water (0.05% TFA), B) acetonitrile (0.05% TFA) • Gradient: 20-70% B over 15 min, flow 1.0 mL/min
A correlation study was also carried out using Reverse-Phase HPLC (RP-HPLC). The two constructs were injected in RP-HPLC and retention times (Rt) correlated with hydrophobicity - i.e., high Rt was associated to hydrophobic constructs whereas low Rt to hydrophilic ones.

With CC[C@@]1(O)C(=O)OCc2c1cc1n(c2=O)Cc2c-1nc1cc(F)c(C)c3c1c2[C@@H](NC(=O)OCc1ccc(NC(=O)[C@H](C)NC(=O)[C@@H](NC(=O)CNC(=O)CNC(=O)CNC(=O)CNC(=O)CNC(=O)CCN2C(=O)C=CC2=O)C(C)C)cc1)CC3 [Mal-Gly5-VA-PABC-Exatecan] ({Propanoyl(3-maleimido)}-GGGGGVA[PABC]-Exatecan) the “Aggregation (% monomer)” value ([1]; % monomer by SEC after conjugation to test monoclonal antibody, 95% or greater assessed as low aggregation) was 98%, the Aggregation ([1]; grade in words, drug linker conjugated to test monoclonal antibody (2.3 mol. eq. TCEP, 6 mol. eq. drug linker)) was “None” and the Rt [2] was 9.76 min.
